Data from a melting point compilation (Tetko et al.; mined from patent text by program, amines drawn as free bases though some values may be those of a salt).

| Structure (SMILES) | melting point [°C] |
| --- | --- |
| CCCCc1nc(Cl)c(CO)n1Cc1ccc(Oc2ccccc2C(=O)O)cc1 | 178 to 180 |
| CC1(C)C2CC[C@@]1(C)C(=O)C(C(=O)Nc1ccc(F)c(C(F)(F)F)c1)C2=O (some centres undefined) | 96 to 98 |
| Cc1ccc(S(=O)(=O)OCCCCCCCn2c3c(c4ccccc4c2=O)C(=O)c2ccccc2-3)cc1 | 123 to 126 |
| O=C1C(=O)c2ccc(-c3ccccc3)cc2C2=C1SCC1(CCN(CC(O)COc3ccc(Cl)cc3)CC1)O2 (centres undefined) | 93 to 98 |
| Cc1cc(F)ccc1C(=C(C=CC(O)CC(=O)CC(=O)OC(C)(C)C)c1nnnn1C)c1ccc(F)cc1C (centres undefined) | 65 to 72 |
| O=C1c2cc([N+](=O)[O-])cc3c(N4CCCC4)c(Cl)cc(c23)C(=O)N1O | 209 to 210 |
| OC1CCNc2nc(Br)ccc21 (centres undefined) | 130 to 131 |
| COc1ccc2cncc(CCl)c2c1 | 256 to 257 |
| Brc1ccc(-c2nc3cc(Br)ccc3s2)cc1 | 162 to 163 |
| Nc1nc2c(s1)CC(CCN1CC=C(c3ccccc3)CC1)CC2 (centres undefined) | 177 to 182 |
| COc1cc(C=O)ccc1OCc1csc(N2CCOCC2)n1 | 122 to 123 |
| CC(NC1=NS(=O)(=O)c2ccc(Cl)cc2N1)C(C)(C)C (centres undefined) | > 220 |
| Cc1ccc(N=C(Nc2ccc(C)cc2)ON2C(C)(C)CC(O)CC2(C)C)cc1 | 124 to 126 |
| COCCn1cc(C=O)c(-c2ccc([N+](=O)[O-])o2)n1 | 137 to 138 |
| CC(C)(O)c1ccc(CNC(=O)c2cccnc2Oc2ccc3nonc3c2)cc1 | 149 to 151 |
| COc1c(C=O)c2cc(Cl)c(Cl)cc2n1C1CC(O)C(CO)O1 (centres undefined) | 186 to 187 |
| CCCn1c2cc(Cl)ccc2c(=O)c2cccn21 | 107 to 108 |
| COC(=O)c1cc(I)c(F)c(I)c1Cl | 155 |
| CC(C)Cn1c(COc2ccccc2)nc2c(N)nc3ccccc3c21 | 196 to 197 |

Second part, the molecule after the results:

| melting point [°C] | Structure (SMILES) |
| --- | --- |
| 110 to 112 | COc1ccc(-c2nc(C#N)oc2-c2ccc(OC)cc2)cc1 |
| 76 to 77 | O=Cc1c(OCCCCCCC(=O)N(Cc2ccccc2)Cc2ccccc2)cc(Cl)cc1[N+](=O)[O-] |
| 243 to 245 | COc1ccc2[nH]c3c(C)cnc(Cl)c3c2c1 |
| 130 to 131 | CCCC1CCC2C3CCc4cc(O)ccc4C3CCC12C (centres undefined) |
| 193 to 194 | CCc1cnc2c(NC(=O)c3c(Cl)cccc3Cl)cccc2c1CCl |
| 192 to 195 | CCCOCCOc1ccc(-c2ccc3c(c2)C=C(C(=O)Nc2ccc(CN(C)C4CCOCC4)cc2)CCS3(=O)=O)cc1C |
| 204 to 205 | COc1ccc(-c2ccc(-c3ccc(OC)cc3)c(-c3ccc(O)cc3)n2)cc1 |
| 103 to 106 | CCCOc1ccc(-c2scc(-c3ccccc3Cl)c2CC(=O)NC(=N)NCCCO)c(C)c1 |
| 53 | C=C(Cc1ccc(-c2ccccc2)cc1)CN1CCC(C)CC1 |
| 115 to 117 | CCOc1ccn2nc(SCc3ccccc3)nc2n1 |
| 134 to 138 | N#Cc1ccccc1Nc1ccccc1[N+](=O)[O-] |
| 118 to 119 | CCOC(=O)c1nc(Cl)nc(N)c1OC |
| 152 | CCN(CC)CCNc1ccc2c3c(nn2CCN(CC)CC)-c2c(O)ccc(O)c2C(=O)c13 |
| 87 to 88 | CC(=O)c1cc(-c2ccc(C(F)(F)F)cc2)oc1C |
| 131 to 132 | CCOC(=O)C1=C(C)NC(COCCN)=C(C(=O)OC)C1c1cccc(Cl)c1Cl (centres undefined) |
| 210 | Cc1cn(-c2cccc(C3=Nc4ccc(C#Cc5ccc(F)cc5)cc4NC(=O)C3)c2)cn1 |
| 45 | CC(C)(C)COC1CCC(=O)N1 (centres undefined) |
| 216 to 218 | Clc1cccc(Nc2n[nH]c3ncnc(NCc4ccccc4)c23)c1 |
| 164 to 165 | Cc1ccc(C#Cc2ccc(NC(=O)OC(C)(C)C)c([N+](=O)[O-])c2)cc1 |
| 218 to 219 | Cc1ccc2nc(-n3nc4c(c3O)-c3ccccc3CC4)sc2c1 |
